ChEMBL document CHEMBL1136022, “Development of tripeptidyl farnesyltransferase inhibitors” (Bioorg Med Chem Lett, 2002)
Values belong to the molecule of their own block, whether it stands above or below them. Where a SMILES comes first, the peptide text is derived from it. The star is where a group is joined. Isovaleryl = CC(C)CC(=O)*; Isobutyryl = CC(C)C(=O)*; Octanoyl = CCCCCCCC(=O)*; Hexanoyl = CCCCCC(=O)*; PhAc = O=C(Cc1ccccc1)*; Bz = O=C(c1ccccc1)*

How the values were obtained:
[1] = biological target: Protein farnesyltransferase (Bos taurus) (UniProt P29702+P49355); assay: In vitro inhibition of bovine Farnesyltransferase at a 1 ug/mL.; type: protein-complex assay
[2] = biological target: Protein farnesyltransferase (Bos taurus, UniProt P29702+P49355); assay: In vitro inhibition of bovine Farnesyltransferase.; type: protein-complex assay

SMILES: COC(=O)[C@H](COC(=O)c1ccccc1)NC(=O)[C@@H](NC(=O)[C@@H](N)CS)C(C)C (H-Cys-Val-Ser(Bz)-OMe)
inhibition [1]: 69.3%
IC50 [2]: 0.9 µM

SMILES: COC(=O)[C@H](Cc1ccc(OC(=O)/C=C/c2ccccc2)cc1)NC(=O)[C@@H](NC(=O)[C@@H](N)CS)C(C)C
inhibition [1]: 12.6%
IC50 [2]: 43 µM

SMILES: COC(=O)[C@H](Cc1ccc(OC(=O)C(C)C)cc1)NC(=O)[C@@H](NC(=O)[C@@H](N)CS)C(C)C (H-Cys-Val-Tyr(Isobutyryl)-OMe)
inhibition [1]: 26.7%
IC50 [2]: 12 µM

SMILES: COC(=O)[C@H](COC(=O)c1ccc(Cl)cc1)NC(=O)[C@@H](NC(=O)[C@@H](N)CS)C(C)C
inhibition [1]: 75%
IC50 [2]: 0.82 µM

SMILES: COC(=O)[C@H](Cc1ccc(OC(C)=O)cc1)NC(=O)[C@@H](NC(=O)[C@@H](N)CS)C(C)C (H-Cys-Val-Tyr(Ac)-OMe)
inhibition [1]: 6.3%
IC50 [2]: 48 µM

SMILES: CCCCCCCC(=O)Oc1ccc(C[C@H](NC(=O)[C@@H](NC(=O)[C@@H](N)CS)C(C)C)C(=O)OC)cc1 (H-Cys-Val-Tyr(Octanoyl)-OMe)
inhibition [1]: 17%
IC50 [2]: 22 µM

SMILES: COC(=O)[C@H](Cc1cccc(OC(=O)/C=C/c2ccccc2)c1)NC(=O)[C@@H](NC(=O)[C@@H](N)CS)C(C)C
inhibition [1]: 17%
IC50 [2]: 17 µM

SMILES: COC(=O)[C@H](Cc1ccc(OC(=O)CC(C)CCCC(C)C)cc1)NC(=O)[C@@H](NC(=O)[C@@H](N)CS)C(C)C (some centres undefined)
inhibition [1]: 10%
IC50 [2]: 8.1 µM

SMILES: CCCCCC(=O)Oc1ccc(C[C@H](NC(=O)[C@@H](NC(=O)[C@@H](N)CS)C(C)C)C(=O)OC)cc1 (H-Cys-Val-Tyr(Hexanoyl)-OMe)
inhibition [1]: 42%
IC50 [2]: 7.5 µM

SMILES: COC(=O)[C@H](COC(=O)/C=C/c1ccccc1)NC(=O)[C@@H](NC(=O)[C@@H](N)CS)C(C)C
inhibition [1]: 16.3%

Results, then the molecule that gave them:

inhibition [1]: 23.4%
IC50 [2]: 20 µM
SMILES: COC(=O)[C@H](Cc1ccc(OC(=O)c2ccccc2)cc1)NC(=O)[C@@H](NC(=O)[C@@H](N)CS)C(C)C (H-Cys-Val-Tyr(Bz)-OMe)

inhibition [1]: 12%
SMILES: COC(=O)[C@H](Cc1cccc(OC(C)=O)c1)NC(=O)[C@@H](NC(=O)[C@@H](N)CS)C(C)C

inhibition [1]: 69.3%
SMILES: COC(=O)[C@H](Cc1cccc(OC(=O)c2ccccc2)c1)NC(=O)[C@@H](NC(=O)[C@@H](N)CS)C(C)C

inhibition [1]: 0%
SMILES: COC(=O)[C@H](CO)NC(=O)[C@@H](NC(=O)[C@@H](N)CS)C(C)C (H-Cys-Val-Ser-OMe)

inhibition [1]: 74%
IC50 [2]: 0.82 µM
SMILES: COC(=O)[C@H](Cc1ccc(OC(=O)CC(C)C)cc1)NC(=O)[C@@H](NC(=O)[C@@H](N)CS)C(C)C (H-Cys-Val-Tyr(Isovaleryl)-OMe)

IC50 [2]: 5.8 µM
SMILES: COC(=O)[C@H](CCSC)NC(=O)[C@H](Cc1ccccc1)NC(=O)[C@@H](NC(=O)[C@@H](N)CS)C(C)C

inhibition [1]: 30%
IC50 [2]: 10 µM
SMILES: COC(=O)[C@H](Cc1cccc(OC(=O)C(C)C)c1)NC(=O)[C@@H](NC(=O)[C@@H](N)CS)C(C)C

inhibition [1]: 38.6%
SMILES: COC(=O)[C@H](COC(=O)C=C(C)C)NC(=O)[C@@H](NC(=O)[C@@H](N)CS)C(C)C

inhibition [1]: 79.6%
IC50 [2]: 0.5 µM
SMILES: COC(=O)[C@H](Cc1ccc(OC(=O)C=C(C)C)cc1)NC(=O)[C@@H](NC(=O)[C@@H](N)CS)C(C)C

inhibition [1]: 67%
IC50 [2]: 0.92 µM
SMILES: COC(=O)[C@H](COC(=O)c1ccc(C)cc1)NC(=O)[C@@H](NC(=O)[C@@H](N)CS)C(C)C

inhibition [1]: 61%
IC50 [2]: 8.4 µM
SMILES: COC(=O)[C@H](Cc1cccc(OC(=O)C=C(C)C)c1)NC(=O)[C@@H](NC(=O)[C@@H](N)CS)C(C)C

inhibition [1]: 57%
IC50 [2]: 1.8 µM
SMILES: COC(=O)[C@H](COC(=O)c1ccc(OC)cc1)NC(=O)[C@@H](NC(=O)[C@@H](N)CS)C(C)C

inhibition [1]: 32%
SMILES: COC(=O)[C@H](Cc1ccc(OC(=O)Cc2ccccc2)cc1)NC(=O)[C@@H](NC(=O)[C@@H](N)CS)C(C)C (H-Cys-Val-Tyr(PhAc)-OMe)
